In patent US6262083A, “Genipin derivative having liver protection activity” (priority 1997, dated 2001):
Where two headings read alike, the source gives them in different places.

Tests used:
[1] = test system: HBV; experiment: inhibitory effect on HBV replication in 2.2.15 cell culture; assay type: cell-based; conditions: for EC50: Hepatitis B virus, 216 h, read-out: ED50 (inhibitory effect on HBV replication); for SI (selectivity Index, IC50/ED50): cytotoxicity IC50 / anti-HBV ED50, 2.2.15 cell
Protocol: Test for identifying the anti HBV effect of the compound of the present invention was carried out according to a known assay method (see, Korba and Milman, Antiviral Res., 15, 217, 1991). The assay procedure is briefly described in the following.
2.2.15. cell was cultured and preserved in RPM 11640 culture medium containing 5% fetal bovine serum (FBS), 2 mM glutamine and 50 μg/ml gentamicin sulfate. Resistance to G418 of the cell culture and degree of Mycoplasma contamination were examined according to conventional methods.
Cells (1×10^4 /cm^2) were inoculated into a multi-well tissue culture plate, confluently cultured for 7 days, and then kept for 2 or 3 days in confluent condition to stabilize the HBV DNA level. Then, culture medium was replaced 24 hours before cells were exposed to test compound. During the treatment of 9 days, culture medium was replaced and then test compound was added to the fresh culture medium at intervals of 24 hours. Culture medium was collected immediately before the first introduction of test compound, and after 3, 6, 9 days, respectively, and stored at -70° C. before HBV DNA analysis. Then, cytolysis was carried out to analyze the intracellular HBV DNA.
To analyze the extracellular HBV DNA, 0.2 ml of culture medium was incubated in 1M NaOH/10×SSC (1×SSC=0.15M NaCl/0.015M sodium citrate, pH 7.2) for 20 minutes at 25° C. and then immediately applied to a nitrocellulose membrane presoaked in 20×SSC using a slot blot apparatus. The sample was washed twice with 0.5 ml of 1M Tris/2M NaCl (pH 7.2) and once with 0.5 ml of 20×SSC to neutralize, and then it was washed again with 2×SSC and heated at […] for one hour under vacuum. Generally, the cells which have been cultured and preserved in a dish having a diameter of 10 cm are dissolved in 6 ml of lysis buffer, and the […] DNA is prepared according to the method of Korba et al., 1991.
10 μg/lane of cellular DNA sample was digested with restriction enzyme Hind III. Then, the digested sample was applied to 1% agarose gel electrophoresis and transferred to a nitrocellulose membrane.
3.2 kb HBV DNA fragment obtained by EcoR I-digestion and purification was labeled with [^32 P]dCTP using nick translation method. This labeled fragment was used as a hybridization probe. Condition for hybridization and post-washing were controlled by referring to the method of Korba et al., 1991 and HBV nucleic acid content among test sample was determined by Ambis beta scanner. The relative radioactivity of ^32 P hybridized to the test sample was compared with that of ^32 P hybridized to the standard amount of HBV DNA which was applied to each nitrocellulose membrane filter (gel or slot blot). From the calibration curve, the amount of HBV DNA corresponding to the relative cpm value was calculated.
Since the content of intracellular and extracellular HBV DNA has some inherent variations, only inhibition greater than 3.5-fold in the case of HBV virion DNA or 3.0-fold in the case of HBV DNA replication intermediates form the average level of HBV DNA formed in the untreated cell were considered to be statistically significant (P<0.05) in the present experiment. The lever of HBV DNA integrated during each cellular DNA preparation (which remains constant per cell in the present experiment) was used to calculate the level of intracellular HBV DNA formed, thereby the technical variations inherent in the blot hybridization analysis can be eliminated. Typical values for extracellular HBV virion DNA in the untreated cells ranged from 50 to 150 pg/ml culture medium with an average value of about 75 pg/ml. Intracellular HBV DNA replication intermediates (RI) in the untreated cells ranged form 50 to 100 pg/μg cellular DNA with an average value of about 74 pg/μg. […]

[2] = cytotoxicity test, neutral red dye uptake method; assay type: cell-based; conditions: human, 2.2.15 cells, 2.2.15 cell culture, A510, read-out: IC50 (cytotoxicity)
Protocol: Cytotoxivity test was carried out in order to determine whether the antiviral effect of the compound according to the present invention is due to the general influence on cell growth or not. In the present experiment, neutral red dye uptake method was used. This is a standard method widely utilized for examining cell survival, by which the variety of relations between viruses such as HSV or HIV and host organism can be understood.
Cytotoxicity test was performed on a 96-well tissue culture plate. Cells were cultured and treated with test compounds in the same manner as Biological Example 1, and the experiments at 4-kind concentrations were repeated threetimes, respectively. Since the relative toxicity can be determined form the uptake level of neutral red dye, quantitative analysis was carried out using the absorbance of internalized dye at 510 nm (A510).

[3] = test system: liver cells; experiment: liver protection effect in carbon tetrachloride / D-galactosamine model, serum ALT (GPT) or AST in rats, oral for 4 days; assay type: in vivo; conditions: 100 mg/kg, p.o
Protocol: The efficacy of compounds of formulas (I)a, (I)b, (I)c and (I)d was measured according to the method of carbon tetrachloride model [referred to: Philippe letteron et al., Biochemical Pharmacology, 39, 12, 2027~2034, 1990] and D-galactosamine model [referred to: Koji Hase et al., Biol. Pharm. Bull., 20, 4, 381~385, 1997].
Carbon tetrachloride and D-galactosamine are known as the compounds inducing the severe damage to liver cells, because carbon tetrachloride suppresses the biosysthesis of protein in the liver and induces the necrosis of liver cells, and D-galactosamine also induces the necrosis of liver cells by changing the structure of liver cell membranes.
In the present invention, the compounds of formulas (I)a, (I)b, (I)c and (I)d were orally administered to the rats as experimental animals for 4 days, and then the liver protection effect was examined by measuring the serum ALT or AST values in the experimental animals (referred to: Biol. Prarm. Bull., 20, 4, 38 1~385, 1997; Toxicology and Applied Pharmacology, 95, 1~11, 1988).
Following is calculation formula to evaluate liver protection properties of compounds of formulas (I)a, (I)b, (I)c and (I)d; [formula]
the control group means the group to which carbon tetrachloride or D-galactosamine is administered and the liver cells are impaired;
the normal group means the group to which normal solution is administered.
The liver protection effects of compounds of formulas (I)a, (I)b, (I)c and (I)d are shown to following Table 1 in comparison with known liver protection compound silimarin.

[4] = test system: ICR mouse; experiment: acute toxicity in ICR mouse; assay type: in vivo
Protocol: (§1) On the other hand, the acute toxicity of compounds of formulas (I)a, (I)b, (I)c and (I)d is measured using mouse according to the standard of drug toxicity test. The mouse is selected from the 4 weeks old ICR mouse and each dosage of 250 mg/kg, 500 mg/kg, 1,000 mg/kg and 2,000 mg/kg compounds of formulas (I)a, (I)b, (I)c and (I)d are administered after suspending the compounds in the corn oil.

[5] = acute toxicity in ICR mouse; assay type: in vivo; conditions: mouse, in vivo, read-out: Lethal ratio (%)
Protocol: as §1

[6] = test system: HBV; conditions: Korean Patent Laid-open No. 94-1886; cited from earlier work
[7] = cited from earlier work; for in vivo activities: in words
[8] = 2.2.15 cell culture, 9 days treatment

| Structure (SMILES) | EC50 [1, 8] | SI (selectivity Index, IC50/ED50) [1] | CC50 at 216 h [2] | Liver protection effect (GPT, %) [3] | Number of dead animals/Number of administered animals ([4]; 250 mg/kg) | Number of dead animals/Number of administered animals ([4]; 1000 mg/kg) | Number of dead animals/Number of administered animals ([4]; 2000 mg/kg) | mortality ([5]; 250 mg/kg) | mortality ([5]; 500 mg/kg) | mortality ([5]; 1000 mg/kg) | mortality ([5]; 2000 mg/kg) | EC50 [1] | Number of dead animals/Number of administered animals ([4]; 500 mg/kg) | HBV replication [6] | anti-tumor effect ([7]; Japanese Patent Laid-open No. 80/164625) | in vivo activities [7] |
| --- | --- | --- | --- | --- | --- | --- | --- | --- | --- | --- | --- | --- | --- | --- | --- | --- |
| COC(=O)C1=CO[C@@H](OCc2ccccc2)[C@@H]2C(CN=[N+]=[N-])=CC[C@H]12 [Compound (I)a, methyl (7R,3aS,7aS)-1-azidomethyl-7-benzyloxy-3,7,3a,7a-tetrahydro-6-oxaindene-4-carboxylate] | 80 µM | 4.5 | 120 µM | 65% | 0/5 | 0/5 | 0/5 | 0% | 0% | 0% | 0% |  |  |  |  |  |
| Nc1ccn([C@H]2CC[C@@H](CO)O2)c(=O)n1 [ddC, dideoxy cytidine, reference compound] |  | > 2.0 | > 30 µM |  |  |  |  |  |  |  |  | 15 µM |  |  |  |  |
| COC(=O)C1=CO[C@@H](OCc2ccccc2)[C@@H]2C(/C=N/OC(C)(C)C)=CC[C@H]12 [Compound (I)c, methyl (1S,5R,6S)-5-benzyloxy-7-(t-buthoxyiminomethyl)-4-oxa-bicyclo [4.3.0]nona-2,7-dien-2-carboxylate] | 30 µM | 5.7 | 180 µM | 64% | 0/5 | 0/5 | 0/5 | 0% | 0% | 0% | 0% |  | 0/5 |  |  |  |
| COC(=O)C1=CO[C@@H]2O[C@H](OC)[C@@H]3CC[C@H]1[C@H]23 [Compound (I)b, (2S,2aR,4aS,7aR,7bS)-2-methoxy-5-methoxycarbonyl-2a,3,4,4a,7a,7b-hexa-hydro-2H-1,7-dioxacyclopent[c.d]indene] | 40 µM | 3.0 | 90 µM | 57% | 0/5 | 0/5 | 0/5 | 0% | 0% | 0% | 0% |  | 0/5 |  |  |  |
| COC(=O)C1=CO[C@H](OCc2ccccc2)[C@H]2[C@@H]1CC1OC(C)(C)OC12CNC(=O)Nc1cccnc1 (stereo partly drawn) [Compound (I)d, methyl (1S,8S,12S)-2-[(3-pyridyl)ureido]methyl-4,4-dimethyl-3,5,11-trioxa-12-benzyloxy-tricyclo[6.4.0.0<2,6>]dodec-9-en-9-carboxylate] | 20 µM | 2.5 | 70 µM | 74% | 0/5 | 0/5 | 0/5 | 0% | 0% | 0% | 0% |  | 0/5 |  |  |  |
| COC(=O)C1=CO[C@@H](O)[C@@H]2C(CO)=CC[C@H]12 [genipin] |  |  |  |  |  |  |  |  |  |  |  |  |  | inhibit the HBV replication | effective as an anti-tumor agent | liver-protection, inhibition of biosynthesis of RNA and protein, detoxification as well as antiviral activity |
| OCC1=C[C@@H](O)[C@@H]2C=CO[C@@H](O[C@@H]3O[C@H](CO)[C@@H](O)[C@H](O)[C@H]3O)[C@H]12 [aucubin] |  |  |  |  |  |  |  |  |  |  |  |  |  | inhibit the HBV replication |  | liver-protection, inhibition of biosynthesis of RNA and protein, detoxification as well as antiviral activity |
